Source: the supplement of paper PMC10307832

Columns and labels:
GSK-J4 = compound: CCOC(=O)CCNc1cc(N2CCc3ccccc3CC2)nc(-c2ccccn2)n1 [GSK-J4]; test: relative viability (nuclei count vs DMSO), 5 days (fraction); higher = more cells survive
In short: (§1)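 Viability was defined as treated-well nuclei divided by vehicle-well nuclei, with the median taken over replicate plates. Cells from lung cancer lines sat overnight at 37 °C in 1536-well plates, received five √10-spaced library-drug doses by pinning on vehicle-anchored plates, and grew 5 days without medium change before one-step fixation, permeabilisation and Hoechst staining, 4× imaging and MetaXpress nuclear counts. Only plates with control CV under 25% and at least one doubling were kept.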

AZ3146 = compound: CN1CCC(CC1)OC2=CC(=C(C=C2)NC3=NC=C4C(=N3)N(C(=O)N4C)C5CCCC5)OC [AZ3146]; test: as above
In short: as §1

Cell Line | relative viability (GSK-J4; 0.5 µM) | relative viability (GSK-J4; 1.581 µM) | relative viability (GSK-J4; 5 µM) | relative viability (GSK-J4; 15.81 µM) | relative viability (GSK-J4; 50 µM) | relative viability (AZ3146; 0.08 µM) | relative viability (AZ3146; 0.253 µM) | relative viability (AZ3146; 0.8 µM) | relative viability (AZ3146; 2.53 µM) | relative viability (AZ3146; 8 µM)
NCI-H23 | 0.956 | 0.761 | 0.814 | 0.803 | 0.742 | 1.13 | 1.06 | 0.959 | 1.05 | 0.758
NCI-H322M | 1.05 | 1.04 | 1.1 | 0.839 | 0.818 | 0.872 | 0.927 | 0.823 | 0.958 | 0.827
NCI-H358 | 0.981 | 0.843 | 0.977 | 0.819 | 0.807 | 0.977 | 0.923 | 0.873 | 1.1 | 0.785
NCI-H441 | 0.967 | 0.85 | 0.827 | 0.92 | 0.796 | 0.939 | 1.18 | 1.01 | 1.05 | 1.03
NCI-H460 | 0.957 | 0.8 | 0.767 | 0.981 | 1.01 | 0.94 | 1.01 | 1.02 | 0.997 | 0.78
NCI-H520 | 0.985 | 0.621 | 0.857 | 0.702 | 0.853 | 0.875 | 0.971 | 0.832 | 1.04 | 0.999
NCI-H522 | 1.06 | 0.746 | 0.789 | 0.75 | 0.559 | 0.917 | 0.943 | 0.926 | 0.899 | 0.938
NCI-H596 | 1.04 | 0.833 | 0.92 | 0.889 | 0.903 | 0.985 | 0.841 | 0.931 | 0.979 | 0.963
NCI-H647 | 0.966 | 0.832 | 0.742 | 0.886 | 0.936 | 0.777 | 0.919 | 0.94 | 1.07 | 0.92
NCI-H650 | 0.931 | 0.653 | 0.494 | 0.832 | 0.751 | 0.776 | 0.822 | 0.867 | 1.02 | 1.03
NCI-H661 | 0.969 | 0.922 | 0.904 | 0.927 | 0.723 | 1.02 | 0.988 | 0.92 | 0.98 | 1.05
NCI-H727 | 0.863 | 0.754 | 1.11 | 0.85 | 0.468 | 0.838 | 1.08 | 0.838 | 1.21 | 0.74
NCI-H838 | 1.04 | 0.895 | 0.635 | 0.887 | 0.883 | 0.994 | 0.939 | 0.914 | 0.963 | 0.734
NCI-H1299 | 0.982 | 0.952 | 0.877 | 0.998 | 1 | 0.987 | 0.995 | 0.996 | 1.02 | 0.992
NCI-H1355 | 0.979 | 0.916 | 0.821 | 0.902 | 0.943 | 0.941 | 0.971 | 1 | 1.07 | 0.961
NCI-H1395 | 1.05 | 0.893 | 0.827 | 0.964 | 0.81 | 0.958 | 0.879 | 0.86 | 0.985 | 0.85
NCI-H1437 | 1.01 | 0.909 | 0.923 | 1.01 | 0.609 | 0.887 | 0.936 | 0.953 | 1.03 | 0.983
NCI-H1563 | 0.952 | 1.1 | 0.892 | 0.894 | 0.985 | 0.837 | 0.973 | 1.04 | 0.902 | 0.909
NCI-H1623 | 1.05 | 0.739 | 1.31 | 0.825 | 0.959 | 1.03 | 0.991 | 0.78 | 0.944 | 0.956
NCI-H1648 | 0.992 |  | 1.47 | 0.496 | 0.807 |  | 0.654 | 0.924 | 0.921 | 1.03
NCI-H1650 | 1.11 | 0.791 | 0.889 | 0.808 | 0.682 | 0.966 | 0.873 | 0.812 | 0.864 | 0.652
NCI-H1651 | 0.986 | 0.856 | 0.973 | 0.948 | 0.96 | 0.902 | 0.879 | 0.968 | 0.952 | 1.02
NCI-H1666 | 0.977 | 0.79 | 1.19 | 1 | 0.804 | 1.09 | 0.953 | 1.02 | 1.05 | 1.05
NCI-H1703 | 0.936 | 0.903 | 0.815 | 0.781 | 0.804 | 0.979 | 0.901 | 0.789 | 0.806 | 0.55
NCI-H1734 | 0.9 | 0.909 | 0.686 | 0.765 | 0.807 | 0.96 | 1.09 | 0.954 | 1.04 | 0.98

Cell Line | relative viability (GSK-J4; 0.5 µM) | relative viability (GSK-J4; 1.581 µM) | relative viability (GSK-J4; 5 µM) | relative viability (GSK-J4; 15.81 µM) | relative viability (GSK-J4; 50 µM) | relative viability (AZ3146; 0.08 µM) | relative viability (AZ3146; 0.253 µM) | relative viability (AZ3146; 0.8 µM) | relative viability (AZ3146; 2.53 µM) | relative viability (AZ3146; 8 µM)
NCI-H1755 | 0.969 | 0.847 | 0.728 | 0.929 | 0.916 | 0.933 | 1.02 | 0.955 | 0.994 | 0.984
NCI-H1792 | 0.932 | 0.606 | 0.925 | 0.697 | 0.832 | 0.759 | 0.776 | 0.93 | 0.841 | 0.905
NCI-H1793 | 1.06 | 0.786 | 0.727 | 0.48 | 0.443 | 0.902 | 0.805 | 0.812 | 1.07 | 0.691
NCI-H1915 | 0.924 | 0.856 |  | 0.969 | 1.12 | 0.9 | 1.04 | 1.07 | 1.03 | 0.991
NCI-H1944 | 0.939 | 0.874 | 0.828 | 0.734 | 0.931 | 0.777 | 0.919 | 1.07 | 1.03 | 0.982
NCI-H1975 | 0.972 | 0.857 |  | 0.953 | 1.09 | 0.859 | 0.993 | 1.06 | 1.02 | 0.844
NCI-H1993 | 1.13 | 1.09 | 1.08 | 0.756 | 0.533 | 0.926 | 0.843 | 1 | 1.03 | 0.489
NCI-H2009 | 0.951 | 0.89 | 0.733 | 0.966 | 0.545 | 0.928 | 0.997 | 1.03 | 1.02 | 0.713
NCI-H2023 | 0.942 | 0.853 | 1.07 | 0.906 | 0.856 | 0.935 | 0.912 | 0.969 | 0.871 | 0.296
NCI-H2085 | 1.02 | 0.953 | 0.884 | 0.924 | 0.955 | 1 | 0.987 | 0.972 | 0.97 | 0.992
NCI-H2087 | 0.96 | 0.824 | 0.82 | 1.04 | 0.856 | 0.877 | 1.08 | 1.03 | 1.2 | 0.917
NCI-H2126 | 0.973 | 0.944 | 1.02 | 0.906 | 0.83 | 0.972 | 1 | 0.99 | 1.06 | 0.919
NCI-H2170 | 1 | 0.89 | 0.893 | 0.916 | 0.969 | 0.959 | 0.991 | 0.994 | 1.01 | 0.96
NCI-H2228 | 0.904 | 1.04 | 1.15 | 0.997 | 0.948 | 1.04 | 0.973 | 1.1 | 0.995 | 0.933
NCI-H2342 | 0.919 | 1.06 | 0.925 | 1.03 | 1.07 | 0.902 | 0.937 | 1.11 | 0.875 | 0.928
NCI-H2347 | 0.984 | 0.879 | 0.886 | 0.952 | 0.849 | 0.997 | 1.03 | 0.913 | 1.1 | 1.07
NCI-H2405 | 1.07 | 0.945 |  | 0.943 | 0.987 | 1.08 | 0.87 | 0.999 | 1.12 | 1.11
NCI-H3122 | 0.941 | 0.904 | 0.955 | 1.05 | 1.02 | 0.979 | 1 | 1.02 | 0.984 | 0.991
PC-3 [JPC-3] | 1.01 | 1.03 | 0.953 | 0.95 | 0.955 | 0.907 | 0.97 | 1.01 | 1.05 | 0.979
PC-14 | 1.02 | 0.916 | 0.769 | 0.985 | 1.01 | 0.958 | 0.967 | 1.02 | 1.04 | 0.784
RERF-LC-KJ | 0.887 | 0.853 | 0.943 | 0.908 | 0.826 | 0.944 | 1.01 | 0.974 | 1.05 | 0.716
SK-LU-1 | 0.947 | 0.865 | 0.826 | 0.838 | 0.704 | 0.944 | 1.07 | 1 | 1.08 | 0.936
SK-MES-1 | 0.965 | 0.937 | 0.932 | 0.928 | 0.783 | 1 | 0.985 | 1.07 | 0.991 | 0.95
SW 900 | 0.803 | 0.794 | 0.842 | 0.863 | 0.64 | 0.77 | 0.669 | 0.751 | 1.01 | 0.686
SW 1573 | 0.926 | 0.96 | 0.851 | 0.949 | 0.756 | 0.994 | 1.04 | 0.991 | 0.959 | 0.68
